Some results are limits rather than exact numbers.

unphosphorylated-BTK kinase domain (UP-BTK), GST-tagged human BTK (389-659aa), sequence (Q06187 389-659): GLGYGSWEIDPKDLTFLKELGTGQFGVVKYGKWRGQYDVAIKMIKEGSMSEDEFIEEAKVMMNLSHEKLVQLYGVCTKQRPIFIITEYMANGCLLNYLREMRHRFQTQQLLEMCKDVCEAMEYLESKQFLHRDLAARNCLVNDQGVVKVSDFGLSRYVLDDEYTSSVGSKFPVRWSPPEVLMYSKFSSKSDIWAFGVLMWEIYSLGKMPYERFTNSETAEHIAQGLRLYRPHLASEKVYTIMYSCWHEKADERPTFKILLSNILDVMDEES

The target of one test is unphosphorylated-BTK kinase domain (UP-BTK), GST-tagged human BTK (389-659aa) (Homo sapiens (Human), UniProt Q06187). The experiment in a line: BTK Kinase Lanthascreen Binding Assay. The following applies: compound, 50 nM Tracer 236, 2 nM anti-GST antibody, 60 minutes; pIC50 = negative log of the IC50 in molar. The protocol: BTK Kinase Lanthascreen Binding Assay:
A BTK kinase lanthascreen binding assay monitors compound binding to unphosphorylated-BTK kinase domain (UP-BTK), by competing with a fluorescent labeled tracer. […] Data were analyzed using Xlfit™ version 5.3 from ID Business Solutions (Guildford), Microsoft Excel add-in. pIC50 refers to the negative log of the IC50 in molar.
Turning to `CC(C)(C)OC(=O)N[C@H]1CC[C@@H](NC(=O)c2sc3nccc4c3c2NC(=O)N4c2ccc(Oc3ccccc3)cc2)CC1` [Example 163, tert-Butyl ((1S,4S)-4-(4-oxo-5-(4-phenoxyphenyl)-4,5-dihydro-3H-1-thia-3,5,8-triazaacenaphthylene-2-carboxamido)cyclohexyl)carbamate], the “BTK_I_binding pIC50” value is on record as 5.43.

In the case of `N[C@@H]1CC[C@H](NC(=O)c2sc3nccc4c3c2NC(=O)N4c2ccc(Oc3ccccc3)cc2)C1` [Example 164, N-((1S,3R)-3-Aminocyclopentyl)-4-oxo-5-(4-phenoxyphenyl)-4,5-dihydro-3H-1-thia-3,5,8-triazaacenaphthylene-2-carboxamide], the “BTK_I_binding pIC50” value amounted to 5.19. Turning to `C=CC(=O)N[C@H]1CCC[C@H]1NC(=O)c1sc2nccc3c2c1NC(=O)N3c1cc(-c2ccccc2)ncn1` [Example 167, N-((1R,2S)-2-Acrylamidocyclopentyl)-4-oxo-5-(6-phenylpyrimidin-4-yl)-4,5-dihydro-3H-1-thia-3,5,8-triazaacenaphthylene-2-carboxamide], the “BTK_I_binding pIC50” value turned out to be 8.34.

As for `C=CC(=O)N[C@H]1CCCC[C@H]1NC(=O)c1sc2nccc3c2c1NC(=O)N3c1ccnc(-c2ccccc2)c1` [Example 168, N-((1R,2S)-2-Acrylamidocyclohexyl)-4-oxo-5-(2-phenylpyridin-4-yl)-4,5-dihydro-3H-1-thia-3,5,8-triazaacenaphthylene-2-carboxamide], the “BTK_I_binding pIC50” value was determined as 8.10. Same read-out and setting: the same measure for `C=CC(=O)N[C@H]1CCC[C@H]1NC(=O)c1sc2nccc3c2c1NC(=O)N3c1ccnc(-c2ccccc2)c1` [Example 169, N-((1R,2S)-2-Acrylamidocyclopentyl)-4-oxo-5-(2-phenylpyridin-4-yl)-4,5-dihydro-3H-1-thia-3,5,8-triazaacenaphthylene-2-carboxamide]: 8.26; for `C=CC(=O)N[C@H]1CCCC[C@H]1NC(=O)c1sc2nccc3c2c1NC(=O)N3c1ccc(Oc2ccccc2)nc1` [Example 172, N-((1R,2S)-2-Acrylamidocyclohexyl)-4-oxo-5-(6-phenoxypyridin-3-yl)-4,5-dihydro-3H-1-thia-3,5,8-triazaacenaphthylene-2-carboxamide]: 8.35. On to `C=CC(=O)N[C@@H]1CCC[C@H]1NC(=O)c1sc2nccc3c2c1NC(=O)N3c1ccc(Oc2ccccc2)nc1` [Example 177, N-((1R,2R)-2-Acrylamidocyclopentyl)-4-oxo-5-(6-phenoxypyridin-3-yl)-4,5-dihydro-3H-1-thia-3,5,8-triazaacenaphthylene-2-carboxamide], for which the “BTK_I_binding pIC50” value amounted to 7.49. The same measure, in the same setting: the same measure for `C=CC(=O)N[C@H]1CCC[C@H]1NC(=O)c1sc2nccc3c2c1NC(=O)N3c1ccc(Oc2ccccc2)nc1` [Example 178, N-((1R,2S)-2-Acrylamidocyclopentyl)-4-oxo-5-(6-phenoxypyridin-3-yl)-4,5-dihydro-3H-1-thia-3,5,8-triazaacenaphthylene-2-carboxamide]: 8.28; for `C=CC(=O)N[C@H]1CCC[C@H]1NC(=O)c1sc2nccc3c2c1NC(=O)N3c1ccc(Oc2ccccc2)cn1` [Example 179, N-((1R,2S)-2-Acrylamidocyclopentyl)-4-oxo-5-(5-phenoxypyridin-2-yl)-4,5-dihydro-3H-1-thia-3,5,8-triazaacenaphthylene-2-carboxamide]: 8.37. Same read-out and setting: for `C=CC(=O)N[C@H]1CCCC[C@H]1NC(=O)c1sc2nccc3c2c1NC(=O)N3c1cnc(OC2CCC2)cc1C` [Example 183, N-((1R,2S)-2-Acrylamidocyclohexyl)-5-(6-cyclobutoxy-4-methylpyridin-3-yl)-4-oxo-4,5-dihydro-3H-1-thia-3,5,8-triazaacenaphthylene-2-carboxamide] the value was 7.58; for `C=CC(=O)N[C@@H]1CC[C@@H](NC(=O)c2sc3nccc4c3c2NC(=O)N4c2ccc(Oc3ccccc3)cc2C)C1` [Example 184, N-((1R,3R)-3-Acrylamidocyclopentyl)-5-(2-methyl-4-phenoxyphenyl)-4-oxo-4,5-dihydro-3H-1-thia-3,5,8-triazaacenaphthylene-2-carboxamide], 7.55. Consider `C=CC(=O)N[C@@H]1CCC[C@H]1NC(=O)c1sc2nccc3c2c1NC(=O)N3c1ccc(Oc2ccccc2)cn1` [Example 185, N-((1R,2R)-2-Acrylamidocyclopentyl)-4-oxo-5-(5-phenoxypyridin-2-yl)-4,5-dihydro-3H-1-thia-3,5,8-triazaacenaphthylene-2-carboxamide], for which the “BTK_I_binding pIC50” value is reported as 7.56. With `C=CC(=O)N[C@H]1CCCC[C@H]1NC(=O)c1sc2nccc3c2c1NC(=O)N3c1ccc(OC2CCC2)nc1C` [Example 187, N-((1R,2S)-2-Acrylamidocyclohexyl)-5-(6-cyclobutoxy-2-methylpyridin-3-yl)-4-oxo-4,5-dihydro-3H-1-thia-3,5,8-triazaacenaphthylene-2-carboxamide], the “BTK_I_binding pIC50” value is listed as 7.30. As to `C=CC(=O)N[C@H]1CCC[C@H]1NC(=O)c1sc2nccc3c2c1NC(=O)N3c1cc(-c2ccccc2)ccn1` [Example 189, N-((1R,2S)-2-Acrylamidocyclopentyl)-4-oxo-5-(4-phenylpyridin-2-yl)-4,5-dihydro-3H-1-thia-3,5,8-triazaacenaphthylene-2-carboxamide], the “BTK_I_binding pIC50” value came out at 8.23. For the compound `C=CC(=O)N[C@@H]1CC[C@H](NC(=O)c2sc3nccc4c3c2NC(=O)N4c2ccc(Oc3ccccc3)c(Cl)c2)C1` [Example 191, N-((1S,3R)-3-Acrylamidocyclopentyl)-5-(3-chloro-4-phenoxyphenyl)-4-oxo-4,5-dihydro-3H-1-thia-3,5,8-triazaacenaphthylene-2-carboxamide], the “BTK_I_binding pIC50” value is 7.95. Still for that read-out and setting: the same measure for `C=CC(=O)N[C@H]1CCC[C@H]1NC(=O)c1sc2nccc3c2c1NC(=O)N3c1cncc(-c2ccccc2)c1` [Example 192, N-((1R,2S)-2-Acrylamidocyclopentyl)-4-oxo-5-(5-phenylpyridin-3-yl)-4,5-dihydro-3H-1-thia-3,5,8-triazaacenaphthylene-2-carboxamide]: 7.92; for `C=CC(=O)N[C@H]1CCC[C@H]1NC(=O)c1sc2nccc3c2c1NC(=O)N3c1cccc(-c2ccccc2)c1` [Example 193, 5-([1,1′-Biphenyl]-3-yl)-N-((1R,2S)-2-acrylamidocyclopentyl)-4-oxo-4,5-dihydro-3H-1-thia-3,5,8-triazaacenaphthylene-2-carboxamide]: 8.09. The same measure, in the same setting: the same measure for `C=CC(=O)N[C@H]1CCC[C@H]1NC(=O)c1sc2nccc3c2c1NC(=O)N3c1cccc(-c2ccccn2)c1` [Example 194, N-((1R,2S)-2-Acrylamidocyclopentyl)-4-oxo-5-(3-(pyridin-2-yl)phenyl)-4,5-dihydro-3H-1-thia-3,5,8-triazaacenaphthylene-2-carboxamide]: 7.89.

With `C=CC(=O)N[C@@H]1CC[C@H](NC(=O)c2sc3nccc4c3c2NC(=O)N4c2ccnc(-c3ccccc3)c2)C1` [Example 198, N-((1S,3R)-3-Acrylamidocyclopentyl)-4-oxo-5-(2-phenylpyridin-4-yl)-4,5-dihydro-3H-1-thia-3,5,8-triazaacenaphthylene-2-carboxamide], the “BTK_I_binding pIC50” value was 7.98. On the same count and under the same terms, the same measure for `C=CC(=O)N[C@H]1CCC[C@H]1NC(=O)c1sc2nccc3c2c1NC(=O)N3c1ccc(Oc2cccnc2)cc1C` [Example 199, N-((1R,2S)-2-Acrylamidocyclopentyl)-5-(2-methyl-4-(pyridin-3-yloxy)phenyl)-4-oxo-4,5-dihydro-3H-1-thia-3,5,8-triazaacenaphthylene-2-carboxamide]: 8.13. On the same count and under the same terms, for `C=CC(=O)N[C@H]1CCC[C@H]1NC(=O)c1sc2nccc3c2c1NC(=O)N3c1cnc(Oc2ccccc2)cn1` [Example 201, N-((1R,2S)-2-Acrylamidocyclopentyl)-4-oxo-5-(5-phenoxypyrazin-2-yl)-4,5-dihydro-3H-1-thia-3,5,8-triazaacenaphthylene-2-carboxamide] the value was 8.32; for `C=CC(=O)N[C@H]1CCC[C@H]1NC(=O)c1sc2nccc3c2c1NC(=O)N3c1cccc(-c2cccnc2)c1` [Example 202, N-((1R,2S)-2-Acrylamidocyclopentyl)-4-oxo-5-(3-(pyridin-3-yl)phenyl)-4,5-dihydro-3H-1-thia-3,5,8-triazaacenaphthylene-2-carboxamide], 7.90; for `C=CC(=O)N[C@H]1CCC[C@H]1NC(=O)c1sc2nccc3c2c1NC(=O)N3c1cnnc(-c2ccccc2)c1` [Example 203, N-((1R,2S)-2-Acrylamidocyclopentyl)-4-oxo-5-(6-phenylpyridazin-4-yl)-4,5-dihydro-3H-1-thia-3,5,8-triazaacenaphthylene-2-carboxamide], 8.06. Still for that read-out and setting: for `C=CC(=O)N[C@H]1CCC[C@H]1NC(=O)c1sc2nccc3c2c1NC(=O)N3c1ccc(OC(C)C)cc1` [Example 205, N-((1R,2S)-2-Acrylamidocyclopentyl)-5-(4-isopropoxyphenyl)-4-oxo-4,5-dihydro-3H-1-thia-3,5,8-triazaacenaphthylene-2-carboxamide] the value was 7.62; for `C=CC(=O)N[C@H]1CCC[C@H]1NC(=O)c1sc2nccc3c2c1NC(=O)N3c1ccc(OC2CCOCC2)cc1C` [Example 206, N-((1R,2S)-2-Acrylamidocyclopentyl)-5-(2-methyl-4-((tetrahydro-2H-pyran-4-yl)oxy)phenyl)-4-oxo-4,5-dihydro-3H-1-thia-3,5,8-triazaacenaphthylene-2-carboxamide], 7.33.

Still in this test, the particulars now being: read-out: BTK_I_binding pIC50 (converted).
Take `CNCC(=O)N[C@@H]1CC[C@H](NC(=O)c2sc3nccc4c3c2NC(=O)N4c2ccc(OC(C)C)cc2C)C1` [Example 161, 5-(4-Isopropoxy-2-methylphenyl)-N-((1S,3R)-3-(2-(methylamino)acetamido)cyclopentyl)-4-oxo-4,5-dihydro-3H-1-thia-3,5,8-triazaacenaphthylene-2-carboxamide]: the IC50 was greater than 1000 nM.
